Assay results taken from the supplement of paper PMC11061612.

What was measured:
Assay in all cases: Bliss excess, mean over the matrix (fraction); higher = more synergy
[1] = test system: MLMA (Other Blood Carcinomas)
How it was run: (§1)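 Bliss excess equals the observed combination effect minus the expected value EA + EB − EA·EB, where EA and EB are the effects of each agent alone. Combination Emax is the second-highest inhibition within the matrix. Inhibition was scaled from CellTiter-Glo 2.0 luminescence, with 0 set by vehicle wells and 1 by blank wells, after 72 hours of two-drug dosing of cells plated in 1536-well plates.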

[2] = test system: MIA-PaCa-2 (Pancreatic Carcinoma)
How it was run: as §1

[3] = test system: EoL-1-cell (Acute Myeloid Leukemia)
How it was run: as §1

[4] = test system: C-4-I (Cervical Carcinoma)
How it was run: as §1

PWR-1E (Non-Cancerous) = test system: PWR-1E (Non-Cancerous)
How it was run: as §1

[5] = test system: KMOE-2 (Acute Myeloid Leukemia)
How it was run: as §1

ACHN (Kidney Carcinoma) = test system: ACHN (Kidney Carcinoma)
How it was run: as §1

[6] = test system: OE19 (Esophageal Adenocarcinoma)
How it was run: as §1

[7] = test system: SCC-15 (Oral Cavity Carcinoma)
How it was run: as §1

[8] = test system: OVCAR-4 (Ovarian Carcinoma)
How it was run: as §1

[9] = test system: KYSE-450 (Esophageal Squamous Cell Carcinoma)
How it was run: as §1

TK10 (Kidney Carcinoma) = test system: TK10 (Kidney Carcinoma)
How it was run: as §1

UACC-62 (Melanoma) = test system: UACC-62 (Melanoma)
How it was run: as §1

[10] = test system: PANC-04-03 (Pancreatic Carcinoma)
How it was run: as §1

[11] = test system: VA-ES-BJ (Other Solid Carcinomas)
How it was run: as §1

[12] = test system: LU-65 (Non-Small Cell Lung Carcinoma)
How it was run: as §1

[13] = test system: BT-549 (Breast Carcinoma)
How it was run: as §1

[14] = test system: HSC-4 (Oral Cavity Carcinoma)
How it was run: as §1

[15] = test system: TE-1 (Esophageal Squamous Cell Carcinoma)
How it was run: as §1

[16] = test system: KARPAS-299 (T-Cell Non-Hodgkin's Lymphoma)
How it was run: as §1

SMILES | Bliss excess [1] | Bliss excess [2] | Bliss excess [3] | Bliss excess [4] | Bliss excess (PWR-1E (Non-Cancerous)) | Bliss excess [5] | Bliss excess (ACHN (Kidney Carcinoma)) | Bliss excess [6] | Bliss excess [7] | Bliss excess [8] | Bliss excess [9] | Bliss excess (TK10 (Kidney Carcinoma)) | Bliss excess (UACC-62 (Melanoma)) | Bliss excess [10] | Bliss excess [11] | Bliss excess [12] | Bliss excess [13] | Bliss excess [14] | Bliss excess [15] | Bliss excess [16]
CC1(C)CCC(CN2CCN(c3ccc(C(=O)NS(=O)(=O)c4ccc(NCC5CCOCC5)c([N+](=O)[O-])c4)c(Oc4cnc5[nH]ccc5c4)c3)CC2)=C(c2ccc(Cl)cc2)C1 [Venetoclax] + Cc1cc2ncnn2cc1Nc1ncc2c(n1)n(C1CCOCC1)c(=O)n2C [AZD7648] (first compound max 1 µM, 7x7, partner max 10 µM) | -0.0323 | -0.0218 | 0.0489 | 0.0131 | -0.0152 | -0.0596 | -0.0244 | -0.0253 | -0.0303 | -0.0163 | -0.0515 | -0.102 | -0.0424 | -0.0617 | -0.0341 | -0.0418 | -0.0328 | -0.058 | -0.0451 | 0.0487
CC1(C)CCC(CN2CCN(c3ccc(C(=O)NS(=O)(=O)c4ccc(NCC5CCOCC5)c([N+](=O)[O-])c4)c(Oc4cnc5[nH]ccc5c4)c3)CC2)=C(c2ccc(Cl)cc2)C1 [Venetoclax] + CN(C)CCCOc1ccc(-c2ccc3ncc4c(c3c2)n(C2CCOCC2)c(=O)n4C)cn1 [AZD0156] (first compound max 1 µM, 7x7, partner max 1 µM) | 0.0062 | 0.0184 | 0.0038 | 0.0229 | 0.0005 | -0.0291 | -0.0333 | -0.0861 | -0.0146 | -0.0338 | -0.0795 | -0.0782 | 0.0254 | -0.062 | -0.0204 | 0.0173 | -0.0049 | -0.0392 | -0.0468 | 0.0353
NC1(C(=O)N[C@@H](CCO)c2ccc(Cl)cc2)CCN(c2ncnc3[nH]ccc23)CC1 [Capivasertib] + CC(=O)c1c(C)c2cnc(Nc3ccc(N4CCNCC4)cn3)nc2n(C2CCCC2)c1=O [Palbociclib] (first compound max 10 µM, 7x7, partner max 10 µM) | -0.0769 | 0.0767 | -0.0039 | -0.0334 | -0.017 | -0.0566 | 0.003 | -0.0854 | -0.0456 | -0.0517 | 0.0133 | -0.0106 | -0.057 | -0.0351 | 0.0144 | -0.151 | -0.0064 | -0.0777 | -0.0276 | 0.0205
CC(=O)c1c(C)c2cnc(Nc3ccc(N4CCNCC4)cn3)nc2n(C2CCCC2)c1=O [Palbociclib] + Cc1c2c(nn1C)CSCc1cc(n(C)n1)CSc1cc(c3ccccc3c1)OCCCc1c(C(=O)O)n(C)c3c-2c(Cl)ccc13 [AZD5991] (first compound max 10 µM, 7x7, partner max 1 µM) | -0.0442 | 0.0265 | 0.0132 | -0.115 | 0.0128 | -0.0002 | -0.0106 | 0.0014 | -0.044 | -0.0337 | -0.0623 | -0.0228 | -0.0612 | -0.0464 | -0.0101 | -0.0692 | 0.0106 | -0.0729 | -0.0182 | 0.0262
COc1nnc2ccc(N3CCC(c4ccc(OCCN5CCN(C)C(=O)[C@H]5C)cc4)CC3)nn12 [AZD5153] + Cc1c2c(nn1C)CSCc1cc(n(C)n1)CSc1cc(c3ccccc3c1)OCCCc1c(C(=O)O)n(C)c3c-2c(Cl)ccc13 [AZD5991] (first compound max 1 µM, 7x7, partner max 1 µM) | -0.0085 | 0.0438 | -0.0073 | 0.0867 | 0.0557 | -0.0322 | -0.0565 | -0.0322 | -0.0167 | -0.0152 | -0.0579 | -0.0459 | 0.0084 | -0.0038 | -0.0174 | -0.0445 | 0.0452 | -0.101 | -0.0166 | -0.0277
CC(=O)c1c(C)c2cnc(Nc3ccc(N4CCNCC4)cn3)nc2n(C2CCCC2)c1=O [Palbociclib] + CC1(C)CCC(CN2CCN(c3ccc(C(=O)NS(=O)(=O)c4ccc(NCC5CCOCC5)c([N+](=O)[O-])c4)c(Oc4cnc5[nH]ccc5c4)c3)CC2)=C(c2ccc(Cl)cc2)C1 [Venetoclax] (first compound max 10 µM, 7x7, partner max 1 µM) | -0.15 | -0.0392 | 0.0515 | -0.0464 | -0.0229 | -0.015 | 0.0329 | -0.0449 | -0.0589 | -0.0523 | -0.0407 | -0.0312 | -0.0678 | -0.0528 | 0.0104 | -0.0781 | -0.034 | -0.0523 | -0.0385 | -0.0496
Cc1c2c(nn1C)CSCc1cc(n(C)n1)CSc1cc(c3ccccc3c1)OCCCc1c(C(=O)O)n(C)c3c-2c(Cl)ccc13 [AZD5991] + C=CCn1c(=O)c2cnc(Nc3ccc(N4CCN(C)CC4)cc3)nc2n1-c1cccc(C(C)(C)O)n1 [AZD1775] (first compound max 1 µM, partner max 1 µM) | -0.0326 | -0.0424 | 0.0097 | 0.0267 | -0.0124 | 0.0087 | -0.0085 | -0.0082 | -0.0365 | 0.0117 | 0.025 | 0.0159 | 0.0675 | – | 0.0475 | -0.118 | 0.024 | -0.0805 | -0.0456 | -0.0032
Cc1c2c(nn1C)CSCc1cc(n(C)n1)CSc1cc(c3ccccc3c1)OCCCc1c(C(=O)O)n(C)c3c-2c(Cl)ccc13 [AZD5991] + C[C@@H]1COCCN1C2=NC(=NC(=C2)C3(CC3)[S@](=N)(=O)C)C4=C5C=CNC5=NC=C4 [AZD6738] (first compound max 1 µM, 7x7, partner max 10 µM) | -0.0392 | 0.0652 | 0.0036 | 0.0416 | 0.005 | 0.0168 | -0.0008 | – | 0.0506 | -0.0472 | 0.0407 | -0.0599 | 0.0478 | 0.0027 | 0.0023 | -0.0405 | 0.0869 | -0.0403 | 0.0125 | 0.0002
CCc1c2c(nc3ccc(O)cc13)-c1cc3c(c(=O)n1C2)COC(=O)[C@]3(O)CC [SN-38] + O=C(c1cc(Cc2n[nH]c(=O)c3ccccc23)ccc1F)N1CCN(C(=O)C2CC2)CC1 [Olaparib] (first compound max 0.3 µM, 7x7, partner max 10 µM) | 0.038 | 0.0701 | 0.135 | 0.055 | – | 0.0555 | 0.0198 | 0.0026 | – | -0.0234 | 0.0808 | 0.011 | 0.0203 | 0.0215 | -0.0117 | 0.0282 | 0.0589 | – | – | 0.0404
Cc1c2c(nn1C)CSCc1cc(n(C)n1)CSc1cc(c3ccccc3c1)OCCCc1c(C(=O)O)n(C)c3c-2c(Cl)ccc13 [AZD5991] + C[C@@H](Nc1cc(F)cc(F)c1)c1cc(C(=O)N(C)C)cc2c(=O)cc(N3CCOCC3)oc12 [AZD8186] (first compound max 1 µM, 7x7, partner max 3 µM) | 0.0282 | -0.0095 | 0.0072 | 0.0655 | -0.0134 | -0.0378 | 0.0607 | 0.043 | 0.0139 | 0.0433 | – | -0.0736 | 0.036 | -0.0045 | 0.0068 | -0.0428 | 0.0621 | -0.063 | -0.0186 | 0.0185
Cc1c2c(nn1C)CSCc1cc(n(C)n1)CSc1cc(c3ccccc3c1)OCCCc1c(C(=O)O)n(C)c3c-2c(Cl)ccc13 [AZD5991] + CC1(C)CCC(CN2CCN(c3ccc(C(=O)NS(=O)(=O)c4ccc(NCC5CCOCC5)c([N+](=O)[O-])c4)c(Oc4cnc5[nH]ccc5c4)c3)CC2)=C(c2ccc(Cl)cc2)C1 [Venetoclax] (first compound max 1 µM, 7x7, partner max 1 µM) | -0.0034 | -0.023 | 0.167 | -0.0019 | 0.0087 | 0.0141 | 0.0156 | -0.0285 | -0.0341 | 0.0108 | -0.0061 | -0.0581 | 0.0296 | -0.0381 | -0.0429 | -0.0487 | 0.0296 | -0.0498 | – | 0.0445
CS(=O)(=O)CCNCc1ccc(-c2ccc3ncnc(Nc4ccc(OCc5cccc(F)c5)c(Cl)c4)c3c2)o1 [Lapatinib] + NC1(c2ccc(-c3nc4ccn5c(=O)[nH]nc5c4cc3-c3ccccc3)cc2)CCC1 [MK-2206] (first compound max 10 µM, 7x7, partner max 10 µM) | -0.093 | 0.0112 | 0.0098 | – | 0.0309 | – | 0.0221 | – | – | – | -0.022 | 0.0616 | 0.0426 | 0.0116 | – | 0.0099 | -0.0275 | 0.0003 | – | 0.0874
